Measured values taken from patent US11969433B2, “Compositions and methods for muscle regeneration using prostaglandin E2” (The Board of Trustees of the Leland Stanford Junior …, priority 2016, dated 2024).

Assays:
MuSCs [1] = test: VisionBlue metabolic viability assay; format: cell-based, mouse; settings: PGE2 1-200 ng/ml
Experimental: To assay proliferation, we used three different assays (hemocytometer, VisionBlue, and EdU). For each, we seeded MuSCs on flat hydrogels (hemocytometer and VisionBlue) or collagen-coated plates (EdU assay) at a density of 500 cells per cm^2 surface area. For hemocytometer cell number count, we collected cells at indicated timepoints by incubation with 0.5% trypsin in PBS for 5 min at 37° C. and quantified them using a hemocytometer at least 3 times. Additionally, we used the VisionBlue Quick Cell Viability Fluorometric Assay Kit (BioVision, catalog #K303) as a readout for cell growth in culture. Briefly, we incubated MuSCs with 10% VisionBlue in culture medium for 3 h, and measured fluorescence intensity on a fluorescence plate reader (Infinite M1000 PRO, Tecan) at Ex=530-570 nm, Em=590-620 nm. We assayed proliferation using the Click-iT EdU Alexa Fluor 555 Imaging kit (Life Technologies). Briefly, we incubated live cells with EdU (20 μM) for 1 hr prior to fixation, and stained nuclei according to the manufacturer's guidelines together with anti-MYOGENIN (Santa Cruz, catalog #sc576, 1:250) to assay differentiation. […] We quantified EdU positive cells using the MetaMorph Image Analysis software (Molecular Devices). Data analyses were blinded, where researchers performing cell scoring were unaware of the treatment condition given to sample groups analyzed.

MuSCs [2] = test: Young MuSC numbers after acute PGE2 treatment, hydrogel culture (hemocytometer count); format: cell-based, mouse; settings: young MuSCs, acute 1-day exposure, PGE2 10 ng/ml, one week later
Experimental: Following isolation, we resuspended MuSCs in myogenic cell culture medium containing DMEM/F10 (50:50), 15% FBS, 2.5 ng ml^−1 fibroblast growth factor-2 (FGF-2 also known as bFGF) and 1% penicillin-streptomycin. We seeded MuSC suspensions at a density of 500 cells per cm^2 surface area. We maintained cell cultures at 37° C. in 5% CO2 and changed medium daily. […]
To assay proliferation, we used three different assays (hemocytometer, VisionBlue, and EdU). […] For hemocytometer cell number count, we collected cells at indicated timepoints by incubation with 0.5% trypsin in PBS for 5 min at 37° C. and quantified them using a hemocytometer at least 3 times. Additionally, we used the VisionBlue Quick Cell Viability Fluorometric Assay Kit (BioVision, catalog #K303) as a readout for cell growth in culture. Briefly, we incubated MuSCs with 10% VisionBlue in culture medium for 3 h, and measured fluorescence intensity on a fluorescence plate reader (Infinite M1000 PRO, Tecan) at Ex=530-570 nm, Em=590-620 nm. […] We quantified EdU positive cells using the MetaMorph Image Analysis software (Molecular Devices). Data analyses were blinded, where researchers performing cell scoring were unaware of the treatment condition given to sample groups analyzed.

## CCCCC[C@H](O)/C=C/[C@H]1[C@H](O)CC(=O)[C@@H]1C/C=C\CCCC(=O)O [PGE2, prostaglandin E2]
MuSCs [1]
  proliferation measured by VisionBlue: Increase
MuSCs [2]
  increase in the number of MuSCs relative to controls: 6 fold
